According to BindingDB's records for doi:10.1021/jm4017448 (China Pharmaceutical University, 2013):

Molecular target: Glucagon-like peptide 1 receptor (Homo sapiens, UniProt P43220)
Assay: Activation of human GLP-1 receptor overexpressed in HEK293 cells assessed as cAMP accumulation after 20 mins by HTRF assay

Glucagon-like peptide 1 receptor, sequence (P43220 whole entry): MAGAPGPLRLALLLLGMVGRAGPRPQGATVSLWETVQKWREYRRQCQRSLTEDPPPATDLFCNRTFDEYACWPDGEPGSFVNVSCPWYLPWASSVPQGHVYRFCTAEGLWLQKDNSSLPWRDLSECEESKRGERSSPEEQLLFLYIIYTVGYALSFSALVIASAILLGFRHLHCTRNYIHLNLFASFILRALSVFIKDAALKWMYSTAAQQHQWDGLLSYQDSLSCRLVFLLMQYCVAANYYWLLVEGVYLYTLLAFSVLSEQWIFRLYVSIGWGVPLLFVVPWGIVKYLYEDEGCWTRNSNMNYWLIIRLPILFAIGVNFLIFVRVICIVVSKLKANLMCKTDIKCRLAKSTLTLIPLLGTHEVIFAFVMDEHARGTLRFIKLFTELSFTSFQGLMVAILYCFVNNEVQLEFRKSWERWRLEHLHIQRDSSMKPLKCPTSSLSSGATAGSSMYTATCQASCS

SMILES | EC50
CC[C@H](C)[C@H](NC(=O)[C@H](Cc1ccccc1)NC(=O)[C@H](CCC(=O)O)NC(=O)[C@H](CCCCN)NC(=O)[C@H](C)NC(=O)[C@H](C)NC(=O)[C@H](CCC(N)=O)NC(=O)CNC(=O)[C@H](CCC(=O)O)NC(=O)[C@H](CC(C)C)NC(=O)[C@H](Cc1ccc(O)cc1)NC(=O)[C@H](CO)NC(=O)[C@H](CO)NC(=O)[C@@H](NC(=O)[C@H](CC(=O)O)NC(=O)[C@H](CO)NC(=O)[C@@H](NC(=O)[C@H](Cc1ccccc1)NC(=O)[C@@H](NC(=O)CNC(=O)[C@H](CCC(=O)O)NC(=O)CNC(=O)[C@@H](N)Cc1cnc[nH]1)[C@@H](C)O)[C@@H](C)O)C(C)C)C(=O)N[C@@H](C)C(=O)N[C@@H](Cc1c[nH]c2ccccc12)C(=O)N[C@@H](CC(C)C)C(=O)N[C@H](C(=O)N[C@@H](CCCCN)C(=O)NCC(=O)N[C@@H](CCCNC(=N)N)C(=O)N[C@@H](CSC1CC(=O)N(CCCCCC(=O)Nc2ccc(C(c3c(O)c4ccccc4oc3=O)c3c(O)c4ccccc4oc3=O)cc2)C1=O)C(N)=O)C(C)C (some centres not stated) | 3 pM
CC[C@H](C)[C@H](NC(=O)[C@H](Cc1ccccc1)NC(=O)[C@H](CCC(=O)O)NC(=O)[C@H](CS)NC(=O)[C@H](C)NC(=O)[C@H](C)NC(=O)[C@H](CCC(N)=O)NC(=O)CNC(=O)[C@H](CCC(=O)O)NC(=O)[C@H](CC(C)C)NC(=O)[C@H](Cc1ccc(O)cc1)NC(=O)[C@H](CO)NC(=O)[C@H](CO)NC(=O)[C@@H](NC(=O)[C@H](CC(=O)O)NC(=O)[C@H](CO)NC(=O)[C@@H](NC(=O)[C@H](Cc1ccccc1)NC(=O)[C@@H](NC(=O)CNC(=O)[C@H](CCC(=O)O)NC(=O)CNC(=O)[C@@H](N)Cc1cnc[nH]1)[C@@H](C)O)[C@@H](C)O)C(C)C)C(=O)N[C@@H](C)C(=O)N[C@@H](Cc1c[nH]c2ccccc12)C(=O)N[C@@H](CC(C)C)C(=O)N[C@H](C(=O)N[C@@H](CCCCN)C(=O)NCC(=O)N[C@@H](CCCNC(=N)N)C(N)=O)C(C)C | 3 pM
